Test results reported in paper PMC9403976, “Elucidating the path to Plasmodium prolyl-tRNA synthetase inhibitors that overcome halofuginone resistance” (Nature Communications, 2022).
“And” between values parts separate entries of the source, which are not always exact repeats. Equal entries are not always repeated.

Columns and labels:
[1] = tested on: halofuginone-induced P. falciparum (elevated proline homeostasis); experiment: P. falciparum ABS growth assay, SYBR Green, 72 h, halofuginone-induced parasites; assay type: cell-based, Plasmodium falciparum; conditions: for parasite growth, replicate wells (Fig 1b): Halofuginone-Induced
Outline: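 EC50 came from SYBR Green 1 fluorescence measured 72 h after dosing in triplicate dose-response. Dihydroartemisinin at 10 μM set full kill and untreated wells set full growth. Cultures of the Dd2 lines were seeded at 1% hematocrit and 1% parasitemia in Albumax-supplemented RPMI.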

HsProRS = HsProRS (Homo sapiens, UniProt P07814); experiment: TR-FRET ligand displacement assay with tracer MAT379 (CoraFluor-1-Halo and anti-His6 antibody formats); assay type: binding; set-up: made in house; host or cells: E. coli SoluBL-21; conditions: for TR-FRET dose-response, normalized signal (SI Fig 11): individual replicates; for normalized TR-FRET signal (dose-response replicates): SI Fig 15
Chain of HsProRS (P07814 996-1512): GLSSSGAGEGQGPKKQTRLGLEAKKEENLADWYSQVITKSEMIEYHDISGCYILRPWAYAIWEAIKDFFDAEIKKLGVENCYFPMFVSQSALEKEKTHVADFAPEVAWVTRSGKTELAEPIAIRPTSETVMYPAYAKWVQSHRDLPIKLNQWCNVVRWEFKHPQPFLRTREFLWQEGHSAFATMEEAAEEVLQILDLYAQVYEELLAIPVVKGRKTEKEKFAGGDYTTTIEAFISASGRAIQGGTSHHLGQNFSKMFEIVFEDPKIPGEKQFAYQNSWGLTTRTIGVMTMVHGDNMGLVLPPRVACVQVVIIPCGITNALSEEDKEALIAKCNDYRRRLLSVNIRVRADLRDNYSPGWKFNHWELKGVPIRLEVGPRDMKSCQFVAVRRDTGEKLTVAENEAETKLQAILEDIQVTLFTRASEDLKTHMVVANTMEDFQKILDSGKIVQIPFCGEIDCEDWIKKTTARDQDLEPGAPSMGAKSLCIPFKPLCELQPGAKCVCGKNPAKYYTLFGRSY

## O=C(NC1Cc2ccccc2C1)c1nccnc1NC(=O)C1CCCCC1 [compound 2, reference compound]
[1]; Log[inhibitor] (M) -9.000
  parasite growth, replicate wells (Fig 1b): 1.00E+02 and 9.60E+01 and 9.80E+01
[1]; Log[inhibitor] (M) -9.488
  parasite growth, replicate wells (Fig 1b): 9.80E+01 (2×) and 9.90E+01
[1]; Log[inhibitor] (M) -5.000
  dose-response value, Replicates 1-3 (SI Fig 2e): 1.0
[1]; Log[inhibitor] (M) -5.408
  dose-response value, Replicates 1-3 (SI Fig 2e): 2.0
HsProRS; HsProRS (KD [nM]) + ATP, 500 μM ATP, 250 nM MAT379
  Kd: 954 nM
HsProRS; HsProRS (KD [nM]) −, absence of substrates, 250 nM MAT379
  Kd: 371 nM
HsProRS; HsProRS - best Kd, SI Fig 16a, values on -log scale
  Kd: 2.16 nM
HsProRS; Log[inhibitor] (M) -5.000
  normalized TR-FRET ligand displacement signal, dose-response replicates (SI Fig 6): 1.03E-01 and 7.51E-02 and 1.04E-01
  TR-FRET dose-response, normalized signal (SI Fig 11): 8.64E-04 and 3.42E-02 and 3.40E-02
HsProRS; Log[inhibitor] (M) -5.301
  normalized TR-FRET ligand displacement signal, dose-response replicates (SI Fig 6): 1.90E-01 and 1.89E-01 and 1.86E-01
  TR-FRET dose-response, normalized signal (SI Fig 11): 7.30E-02 and 5.51E-02 and 3.97E-02
HsProRS; Log[inhibitor] (M) -5.602
  normalized TR-FRET ligand displacement signal, dose-response replicates (SI Fig 6): 3.08E-01 and 2.37E-01 and 3.84E-01
  TR-FRET dose-response, normalized signal (SI Fig 11): 1.33E-01 and 1.75E-01 and 1.42E-01
HsProRS; Log[inhibitor] (M) -5.903
  normalized TR-FRET ligand displacement signal, dose-response replicates (SI Fig 6): 6.24E-01 and 5.01E-01 and 5.97E-01
  TR-FRET dose-response, normalized signal (SI Fig 11): 2.61E-01 and 2.29E-01 and 2.70E-01
HsProRS; Log[inhibitor] (M) -6.204
  normalized TR-FRET ligand displacement signal, dose-response replicates (SI Fig 6): 7.10E-01 and 7.38E-01 and 7.90E-01
  TR-FRET dose-response, normalized signal (SI Fig 11): 4.85E-01 and 4.00E-01 and 4.14E-01
HsProRS; Log[inhibitor] (M) -6.505
  normalized TR-FRET ligand displacement signal, dose-response replicates (SI Fig 6): 9.53E-01 and 9.22E-01 and 9.58E-01
  TR-FRET dose-response, normalized signal (SI Fig 11): 5.65E-01 and 5.68E-01 and 5.80E-01
HsProRS; Log[inhibitor] (M) -6.806
  normalized TR-FRET ligand displacement signal, dose-response replicates (SI Fig 6): 8.96E-01 and 9.59E-01 and 9.45E-01
  TR-FRET dose-response, normalized signal (SI Fig 11): 6.77E-01 and 7.64E-01 and 7.01E-01
HsProRS; Log[inhibitor] (M) -7.107
  normalized TR-FRET ligand displacement signal, dose-response replicates (SI Fig 6): 1.10E+00 and 1.02E+00 and 1.05E+00
  TR-FRET dose-response, normalized signal (SI Fig 11): 8.54E-01 and 8.95E-01 and 8.55E-01
HsProRS; Log[inhibitor] (M) -7.408
  normalized TR-FRET ligand displacement signal, dose-response replicates (SI Fig 6): 1.04E+00
  TR-FRET dose-response, normalized signal (SI Fig 11): 8.94E-01 and 8.78E-01 and 9.74E-01
HsProRS; Log[inhibitor] (M) -7.709
  normalized TR-FRET ligand displacement signal, dose-response replicates (SI Fig 6): 9.76E-01 and 1.06E+00 and 1.03E+00
  TR-FRET dose-response, normalized signal (SI Fig 11): 9.26E-01 and 9.17E-01 and 9.24E-01
HsProRS; Log[inhibitor] (M) -8.010
  normalized TR-FRET ligand displacement signal, dose-response replicates (SI Fig 6): 9.42E-01 and 1.05E+00 and 9.60E-01
  TR-FRET dose-response, normalized signal (SI Fig 11): 9.79E-01 and 9.27E-01 and 9.78E-01
HsProRS; Log[inhibitor] (M) -8.311
  normalized TR-FRET ligand displacement signal, dose-response replicates (SI Fig 6): 1.02E+00 and 9.93E-01 and 1.06E+00
  TR-FRET dose-response, normalized signal (SI Fig 11): 9.15E-01 and 9.66E-01 and 9.82E-01
HsProRS; Log[inhibitor] (M) -8.612
  normalized TR-FRET ligand displacement signal, dose-response replicates (SI Fig 6): 9.95E-01 and 1.01E+00 and 1.07E+00
  TR-FRET dose-response, normalized signal (SI Fig 11): 9.61E-01 and 9.59E-01 and 9.62E-01
HsProRS; Log[inhibitor] (M) -8.913
  normalized TR-FRET ligand displacement signal, dose-response replicates (SI Fig 6): 1.02E+00 and 1.03E+00 and 9.75E-01
  TR-FRET dose-response, normalized signal (SI Fig 11): 9.90E-01 and 9.95E-01 and 9.69E-01
HsProRS; Log[inhibitor] (M) -9.214
  normalized TR-FRET ligand displacement signal, dose-response replicates (SI Fig 6): 9.83E-01 and 1.03E+00 and 1.00E+00
  TR-FRET dose-response, normalized signal (SI Fig 11): 9.62E-01 and 1.02E+00 and 1.04E+00
HsProRS; Log[inhibitor] (M) -4.99976
  normalized TR-FRET signal (dose-response replicates): 1.25E-01 and 2.68E-01 and 1.89E-01
HsProRS; Log[inhibitor] (M) -5.3009
  normalized TR-FRET signal (dose-response replicates): 2.77E-01 and 4.13E-01 and 4.17E-01
HsProRS; Log[inhibitor] (M) -5.60199
  normalized TR-FRET signal (dose-response replicates): 5.80E-01 and 6.20E-01 and 4.83E-01
HsProRS; Log[inhibitor] (M) -5.90248
  normalized TR-FRET signal (dose-response replicates): 7.22E-01 and 7.32E-01 and 6.10E-01
HsProRS; Log[inhibitor] (M) -6.20323
  normalized TR-FRET signal (dose-response replicates): 6.14E-01 and 7.99E-01 and 9.70E-01
HsProRS; Log[inhibitor] (M) -6.51347
  normalized TR-FRET signal (dose-response replicates): 9.27E-01 and 8.30E-01 and 1.04E+00
HsProRS; Log[inhibitor] (M) -6.79595
  normalized TR-FRET signal (dose-response replicates): 1.19E+00 and 9.68E-01 and 1.04E+00
HsProRS; Log[inhibitor] (M) -7.10794
  normalized TR-FRET signal (dose-response replicates): 9.40E-01 and 8.31E-01 and 8.97E-01
HsProRS; Log[inhibitor] (M) -7.40526
  normalized TR-FRET signal (dose-response replicates): 6.74E-01 and 8.60E-01 and 9.73E-01
HsProRS; Log[inhibitor] (M) -7.7137
  normalized TR-FRET signal (dose-response replicates): 9.61E-01 and 8.55E-01 and 9.51E-01
HsProRS; Log[inhibitor] (M) -8
  normalized TR-FRET signal (dose-response replicates): 9.74E-01 and 7.58E-01 and 8.90E-01
HsProRS; Log[inhibitor] (M) -8.331
  normalized TR-FRET signal (dose-response replicates): 8.05E-01 and 1.09E+00 and 1.00E+00
HsProRS; Log[inhibitor] (M) -8.57403
  normalized TR-FRET signal (dose-response replicates): 1.32E+00 and 1.15E+00 and 1.19E+00
HsProRS; Log[inhibitor] (M) -8.87506
  normalized TR-FRET signal (dose-response replicates): 9.35E-01 and 9.99E-01 and 1.09E+00
HsProRS; Log[inhibitor] (M) -9.17609
  normalized TR-FRET signal (dose-response replicates): 1.03E+00 and 1.04E+00 and 1.09E+00
